In brackets after ≈: the same amount, converted by molar mass.
Columns and labels:
[1] = system: Streptococcus spp. spontaneous mutants; test: organism not typed; format: cell-based
Experimental: (§1) Select isolates were subcultured onto agar containing drug at the selection concentration, were identified by MALDI, and were frozen for broth microdilution MIC testing as described below.
(§2) To determine whether colonies growing on drug selection plates had elevated MIC values to the selecting antibiotic, susceptibility testing by broth microdilution was conducted on isolated mutants following methodology recommended by CLSI (1), (2), and (3) “Performance Standards for Antimicrobial Susceptibility Testing; Twenty-Eighth Informational Supplement.,” CLSI document M100-S28, 2018.
(§3) All wells in columns 2 through 12 of a standard 96-well microdilution plate (Costar 3795) were filled with 150 μL of the appropriate diluent. Then, 300 μL of the test agents were added to the wells of column 1 of the plates at […] the highest final concentration to be tested. Serial two-fold dilutions were made across the rows through column 11 using the Biomek 2000. The wells of column 12 contained no drug and served as the growth control wells. This plate served as the “mother plate” from which selected MIC assay plates or “daughter plates” were made.
2 μL of drug solution from each well of a mother plate was added to each corresponding well of the daughter plate in a single step. A standardized inoculum of each aerobic test organism was prepared per CLSI methods to equal a 0.5 McFarland standard, followed by a dilution of 1:20 in MHB II. The plates were then inoculated with 10 μL of the diluted inoculum using the Biomek 2000 from low to high drug concentration, resulting in a final concentration of approximately 5×10^5 CFU/mL. An un-inoculated plate was incubated for the purpose of assessing solubility of the drug in the test media.
The plates for the aerobic tests were stacked 3-4 high, covered with a sterile lid on the top plate, and incubated aerobically at 35° C. for 18-20 hr. The MIC was recorded as the lowest concentration of drug that inhibited visible growth of the organism.

[2] = system: Bacteroides spp. spontaneous mutants; test: Broth microdilution MIC of spontaneous mutants; format: cell-based
Experimental: as §1, §2, §3
Daughter plates for anaerobic organisms were transferred to a Bactron II anaerobic chamber (Sheldon Manufacturing Inc., Cornelius, Oreg.) to reduce for 1 hour prior to inoculation. The inoculum for each organism was prepared in the anaerobic chamber and dispensed into sterile disposable reservoirs. Inoculation was completed using a multichannel pipette to transfer 10 μL of the inoculum into each well of the daughter plate. This yielded a final cell concentration in the daughter plates of approximately 1×10^6 CFU/mL.

[3] = system: Streptococcus spp. spontaneous mutants; details: S. pneumoniae ATCC 49619; CLSI QC range shown in parentheses; cited from earlier work
[4] = system: Enterococcus faecalis clinical isolates; test: MIC distribution against clinical isolates; format: cell-based; details: 50 E. faecalis isolates
Source text: (§4) As used herein, “minimum inhibitory concentration” or “MIC” refers to the lowest concentration of an antimicrobial agent, for example, an antimicrobial agent as described herein, required to inhibit the growth of an organism.
(§5) Many susceptibility testing methods are known in the art and can be used as described herein (see, e.g., Jorgensen and Ferraro (2009) Clinical Infectious Diseases 49:1749-1755; and Maurer et al. (2017) Infectious Disease Reports 9:6839; the entire contents of each of the foregoing are incorporated herein by reference). For example, antimicrobial susceptibility can be determined using conventional culture based methods such as the broth or agar dilution test. In these dilution tests, the bacterial isolate of interest is inoculated onto different media that include serial dilutions of an antimicrobial agent, and incubated under appropriate conditions (e.g., overnight at 37° C.) to allow for growth to occur. Following the incubation period, the media is examined to determine bacterial growth. The lowest concentration of antibiotic that prevents growth represents the minimal inhibitory concentration (MIC). Broth dilution tests can be miniaturized and mechanized allowing for reproducibility and high throughput.

[5] = system: Staphylococcus aureus clinical isolates; test: MIC distribution against clinical isolates; format: cell-based; details: 50 S. aureus isolates
Source text: as §4, §5

Enterococcus faecalis = test: Broth microdilution MIC, 50 clinical isolates; format: cell-based
Experimental: (§6) Minimal inhibitory concentration (MIC) values were determined by broth microdilution or agar dilution in accordance with guidelines from the Clinical and Laboratory Standards Institute (CLSI; (1) “Methods for Dilution Antimicrobial Susceptibility Tests for Bacteria That Grow Aerobically; Approved Standard; 11th ed.” CLSI standard M07-A11, 2018; (2) “Performance Standards for Antimicrobial Susceptibility Testing; Twenty-Eighth Informational Supplement,” CLSI document M100-S28, 2018; and (3) “Methods for Antimicrobial Susceptibility Testing of Anaerobic Bacteria; Approved Standard—Eighth Edition,” CLSI document M11-A8, 2012).
(§7) Tested aerobically by broth microdilution: • Escherichia coli, n=50 • Klebsiella spp., n=50 • Pseudomonas aeruginosa, n=50 • Streptococcus spp., n=50 • Staphylococcus aureus, n=50 • Enterococcus faecalis, n=50 • Enterobacter aerogenes, n=50 • Proteus mirabilis, n=50
(§8) Broth microdilution testing of aerobic bacteria was conducted in cation-adjusted Mueller Hinton broth (MHBII). For testing streptococci, lysed horse blood (LHB) was added to MHBII broth at a final concentration of 3%. Where LHB was used, it was added after filtering.
(§9) Broth microdilution susceptibility testing in 96-well microplates was conducted in accordance with CLSI methods (1) and (2). Automated liquid handlers were used to conduct serial dilutions and liquid transfers, including the Multidrop 384 (Labsystems, Helsinki, Finland), Biomek 2000, and the Biomek FX (Beckman Coulter, Fullerton, Calif.). All wells in columns 2 through 12 of a standard 96-well microdilution plate (Costar 3795) were filled with 150 μL of the appropriate diluent. Then, 300 μL of the test agents were added to the wells of column 1 of the plates at 100× the highest final concentration to be tested. Serial two-fold dilutions were made across the rows through column 11 using the Biomek 2000. The wells of column 12 contained no drug and served as the growth control wells. This plate served as the “mother plate” from which MIC assay plates or “daughter plates” were made.
(§10) The daughter plates were loaded with 190 μL per well of the appropriate medium using the Multidrop 384. The daughter plates were created using the Biomek FX which transferred 2 μL of drug solution from each well of a mother plate to each corresponding well of the daughter plate in a single step. A standardized inoculum of each test organism was prepared per CLSI methods (1) to equal a 0.5 McFarland standard, followed by a dilution of 1:20 for aerobes and 1:10 for anaerobes. The plates were then inoculated with 10 μL of the diluted inoculum using the Biomek 2000 from low to high drug concentration, resulting in a final concentration of approximately 5×10^5 CFU/mL per well. An un-inoculated plate was incubated in parallel for each medium for the purpose of assessing solubility of the drug in the test media.
(§11) Inoculated plates were stacked 3 or 4 high, covered with a sterile lid on the top plate, placed into boxes with CO2 planchets (streptococci) or plastic bags (all other isolates). Plates were incubated at 35° C. for 16-24 hr in ambient air for aerobes or for 42-48 hr in the anaerobic environment of the Bactron II anaerobe chamber (Sheldon Manufacturing Co.; Cornelius, Oreg.). Following incubation, the microplates were removed from the incubator and viewed from the bottom using a plate viewer. The MIC values were read and recorded as the lowest concentration of drug that inhibited visible growth of the organism as per CLSI methods (1) and (2).

Staphylococcus aureus = test: Broth microdilution MIC, 50 clinical isolates (28 MRSA); format: cell-based
Experimental: as §6, §7, §8, §9, §10, §11

## CCC[C@@H]1C[C@@H](C(=O)N[C@@H]([C@H]2O[C@H](SC)[C@H](O)[C@@H](O)[C@H]2O)[C@H](C)Cl)N(C)C1 [CLIN]
[1]; S. agaloctiae ATCC 13813, selected on rifaximin 4X MIC, Colony A
  MIC: 0.03 µg/mL (≈ 0.0706 µM)
[1]; S. agaloctiae ATCC 13813, selected on rifaximin 4X MIC, Colony B
  MIC: 0.03 µg/mL (≈ 0.0706 µM)
[1]; S. agaloctiae ATCC 13813, selected on rifaximin 8X MIC, Colony A
  MIC: 0.03 µg/mL (≈ 0.0706 µM)
[1]; S. agaloctiae ATCC 13813, selected on rifaximin 8X MIC, Colony B
  MIC: 0.03 µg/mL (≈ 0.0706 µM)
[1]; S. agaloctiae ATCC 13813 Parent
  MIC: 0.015 µg/mL (≈ 0.0353 µM)
[1]; S. pneumoniae ATCC 49619, selected on rifaximin 4X MIC, Colony A
  MIC: 0.03 µg/mL (≈ 0.0706 µM)
[1]; S. pneumoniae ATCC 49619, selected on rifaximin 4X MIC, Colony B
  MIC: 0.03 µg/mL (≈ 0.0706 µM)
[1]; S. pneumoniae ATCC 49619, selected on rifaximin 8X MIC, Colony A
  MIC: 0.03 µg/mL (≈ 0.0706 µM)
[1]; S. pneumoniae ATCC 49619, selected on rifaximin 8X MIC, Colony B
  MIC: 0.03 µg/mL (≈ 0.0706 µM)
[1]; S. pneumoniae ATCC 49619 Parent
  MIC: 0.06 µg/mL (≈ 0.141 µM)
[1]; S. pyogenes ATCC 49399, selected on rifaximin 4X MIC, Colony A
  MIC: 0.03 µg/mL (≈ 0.0706 µM)
[1]; S. pyogenes ATCC 49399, selected on rifaximin 4X MIC, Colony B
  MIC: 0.03 µg/mL (≈ 0.0706 µM)
[1]; S. pyogenes ATCC 49399, selected on rifaximin 8X MIC, Colony A
  MIC: 0.03 µg/mL (≈ 0.0706 µM)
[1]; S. pyogenes ATCC 49399, selected on rifaximin 8X MIC, Colony B
  MIC: 0.03 µg/mL (≈ 0.0706 µM)
[1]; S. pyogenes ATCC 49399 Parent
  MIC: 0.03 µg/mL (≈ 0.0706 µM)
[2]; B. fragilis ATCC 25285, selected on rifaximin 4X MIC, Colony A
  MIC: 0.5 µg/mL
[2]; B. fragilis ATCC 25285, selected on rifaximin 4X MIC, Colony B
  MIC: 0.5 µg/mL
[2]; B. fragilis ATCC 25285, selected on rifaximin 8X MIC, Colony A
  MIC: 0.5 µg/mL
[2]; B. fragilis ATCC 25285, selected on rifaximin 8X MIC, Colony B
  MIC: 0.5 µg/mL
[2]; B. fragilis ATCC 25285 Parent
  MIC: 0.25 µg/mL
[2]; B. ovatus MMX 3503, selected on rifaximin 4X MIC, Colony A
  MIC: 1 µg/mL
[2]; B. ovatus MMX 3503, selected on rifaximin 4X MIC, Colony B
  MIC: 1 µg/mL
[2]; B. ovatus MMX 3503, selected on rifaximin 8X MIC, Colony A
  MIC: 0.5 µg/mL
[2]; B. ovatus MMX 3503, selected on rifaximin 8X MIC, Colony B
  MIC: 1 µg/mL
[2]; B. ovatus MMX 3503 Parent
  MIC: 0.5 µg/mL
[2]; B. vulgatus ATCC 8482, selected on ceftriaxone 4X MIC, Colony A
  MIC: 0.25 µg/mL
[2]; B. vulgatus ATCC 8482, selected on ceftriaxone 4X MIC, Colony B
  MIC: 0.25 µg/mL
[2]; B. vulgatus ATCC 8482, selected on rifaximin 4X MIC, Colony A
  MIC: 0.25 µg/mL
[2]; B. vulgatus ATCC 8482, selected on rifaximin 4X MIC, Colony B
  MIC: 0.12 µg/mL
[2]; B. vulgatus ATCC 8482, selected on rifaximin 8X MIC, Colony A
  MIC: 0.12 µg/mL
[2]; B. vulgatus ATCC 8482, selected on rifaximin 8X MIC, Colony B
  MIC: 0.25 µg/mL
[2]; B. vulgatus ATCC 8482 Parent (Table 50)
  MIC: 0.25 µg/mL
[2]; B. vulgatus ATCC 8482 Parent (Table 54)
  MIC: 0.25 µg/mL
[3]
  MIC, CLSI QC range: (0.03-0.12) μg/mL

## Cc1onc(-c2ccccc2)c1C(=O)N[C@@H]1C(=O)N2[C@@H]1SC(C)(C)[C@@H]2C(=O)O [oxacillin, Oxacillin]
[4]; MIC 2 μg/mL
  Cumulative percentage of isolates inhibited at MIC: 2.0%
  Number of test isolates at MIC: 1
[4]; MIC 8 μg/mL
  Cumulative percentage of isolates inhibited at MIC: 16.0%
  Number of test isolates at MIC: 7
[4]; MIC 16 μg/mL
  Cumulative percentage of isolates inhibited at MIC: 54.0%
  Number of test isolates at MIC: 19
[4]; MIC >16 μg/mL
  Cumulative percentage of isolates inhibited at MIC: 100.0%
  Number of test isolates at MIC: 23
[5]; MIC 0.5 μg/mL
  Cumulative percentage of isolates inhibited at MIC: 28.0%
  Number of test isolates at MIC: 10
[5]; MIC 1 μg/mL
  Cumulative percentage of isolates inhibited at MIC: 42.0%
  Number of test isolates at MIC: 7
[5]; MIC 2 μg/mL
  Cumulative percentage of isolates inhibited at MIC: 44.0%
  Number of test isolates at MIC: 1
[5]; MIC 4 μg/mL
  Cumulative percentage of isolates inhibited at MIC: 48.0%
  Number of test isolates at MIC: 2
[5]; MIC 8 μg/mL
  Cumulative percentage of isolates inhibited at MIC: 50.0%
  Number of test isolates at MIC: 1
[5]; MIC >16 μg/mL
  Cumulative percentage of isolates inhibited at MIC: 100.0%
  Number of test isolates at MIC: 25
[5]; MIC […]
  Cumulative percentage of isolates inhibited at MIC: 8.0%
  Number of test isolates at MIC: 4
Enterococcus faecalis
  Mode: >16 µg/mL
Enterococcus faecalis; Enterococcus faecalis, read-out: MIC50
  MIC50: 16 µg/mL (≈ 39.9 µM)
Enterococcus faecalis; Enterococcus faecalis, read-out: MIC90
  MIC90: > 16 µg/mL
Staphylococcus aureus
  % R: 56%
  % S: 44%
  Mode: >16 µg/mL
Staphylococcus aureus; Staphylococcus aureus, read-out: MIC50
  MIC50: 8 µg/mL (≈ 19.9 µM)
Staphylococcus aureus; Staphylococcus aureus, read-out: MIC90
  MIC90: > 16 µg/mL
